The source of these data is patent publication EP3368040B1, “METHODS AND COMPOSITIONS FOR RECOVERY FROM STROKE” (Eip Pharma, LLC, priority 2015, dated 2017).

The structures appear in SMILES notation.

In one series the test system is cytokine signaling. Conditions: relative to IC50 for cytokine production; Alam 2015; cited from earlier work.
The test system of the next series is cytokine production. The note with it: inhibition of cytokine production; cited from earlier work.
The conditions of series [1]: treatment of rheumatoid arthritis; cited from earlier work.
Series [2] relates to rat model of stroke. Nature of the series: transient MCAO in rats: neurological scoring (Neuroscore, mNSS). The series is classed as in vivo, Sprague Dawley rats. The method, then: (§1) Altogether 76 adult male Sprague Dawley rats, purchased from Harlan Laboratories, (Israel), and weighing 300-350 g were used for the experiment. Animals were housed at a standard temperature (20-24°C) and in a light-controlled environment (12 hours light / 12 hours dark) with ad libitum access to food and water. Animals were grouped as follows: • Group 1M: 20 tMCAO animals treated twice-a-day with vehicle from Day 3 (day 1 being day of stroke surgery) to Day 42 (via PO gavage) • Group 2M: 22 tMCAO animals treated twice-a-day with VX-745 (1.5 mg/kg) from Day 3 (day 1 being day of stroke surgery) to Day 42 (via PO gavage) • Group 3M: 21 tMCAO animals treated twice-a-day with VX-745 (4.5 mg/kg) from Day 3 (day 1 being day of stroke surgery) to Day 42 (via PO gavage)
Transient middle cerebral artery occlusion was performed according to the method described in R. Schmid-Elsaesser et al., Stroke, 29(10):2162-2170 (1998). The right Common Carotid Artery (CCA) was exposed through a midline neck incision and carefully dissected free from surrounding nerves and fascia - from its bifurcation to the base of the skull. The occipital artery branches of the ECA (External Carotid Artery) were then isolated, and these branches were dissected and coagulated. The ECA was dissected further distally and coagulated along with the terminal lingual and maxillary artery branches, which was then divided. The ICA (Internal Carotid Artery) was isolated and carefully separated from the adjacent vagus nerve, and the pterygopalatine artery was ligated close to its origin with a 5-0 nylon suture (SMI, Belgium). Next, a 4-0 silk suture was tied loosely around the mobilized ECA stump, and a 4 cm length of 4-0 monofilament nylon suture (the tip of the suture was blunted by using a flame, and the suture was coated with polylysine, prior to insertion) was inserted through the proximal ECA into the ICA and thence into the circle of Willis, effectively occluding the MCA. The surgical wound was closed and the animals were returned to their cages to recover from anesthesia. […]

Series [3] in a line: transient MCAO in rats: mortality and clinical signs. In kind it is in vivo.
Description: Animals were handled at a minimum for three days before the surgery. Baseline measures were taken before stroke was induced. Stroke surgery occurred on Day 1. On Day 2, 24 hours post-stroke surgery, Neuroscore testing was performed. Only animals reaching and exceeding Neuroscore criteria was included in the study. […] Behavioral tests for all groups were conducted on weeks 4 and 6. Animals were sacrificed on Day 44 and brains were harvested.
The next series concerns IL-1β. Nature of the series: transient MCAO in rats: IL-1β ELISA of brain at study termination. In kind it is in vivo, Sprague Dawley rats. Conditions: study termination (Day 44); right minus left hemisphere; trend to lower concentrations in treated groups. The source says:
The brains of all animals were harvested on Day 44. Rats were sacrificed by CO2 inhalation. Brains were harvested from all animals in each group, divided to left and right hemisphere, weighed, and snap frozen.
Brains were harvested at study termination. Each brain was dissected into two hemispheres and each hemisphere was weighed and enclosed into tubes marked Left or Right. Each tube was immediately frozen in liquid nitrogen and stored at (-80)°C. The tissues were defrosted and homogenized in 1 ml / 200 mg tissue of 20mM Tris-HCL pH 7.4 containing a protease inhibitor cocktail (50 µl/ml). Samples were centrifuged at 10,000 g for 15 min at 4°. Clear supernatants were aliquoted (150 µl/aliquot) and stored at (-80)°C until EILSA assays were performed. ELISA assay was executed according to kit instructions. Standards and samples were tested in duplicates.
Following study termination, animals were also tested for IL-1β brain levels using the ELISA system (see Figure 8 for standard curves). The variability of the results was too large to allow definitive conclusions. All the results below the Lower Limit of Quantification (LLOQ) were assigned the LLOQ value of 5pg/ml. Then, results for the uninjured left side were subtracted from the results of the right side. The distribution for individual rats is given in the figure below (n=18 in each of the study groups) (Figure 9).
In general terms: In an ELISA, binding on a coated surface is turned into a signal by an enzyme label.

Series [4] in a line: brain versus blood drug concentration in pre-clinical studies. In kind it is in vivo.
A short description of series [5]: transient MCAO in rats: body weight monitoring. In kind it is in vivo, Sprague Dawley rats. The note with it: through the study; 1.5 and 4.5 mg/kg PO twice a day versus vehicle. The method, then: as §1
Animals were handled at a minimum for three days before the surgery. Baseline measures were taken before stroke was induced. Stroke surgery occurred on Day 1. On Day 2, 24 hours post-stroke surgery, Neuroscore testing was performed. Only animals reaching and exceeding Neuroscore criteria was included in the study. On Days 3-42, treatment with vehicle or VX-745 was administered twice a day for 40 days via PO (oral) gavage for all groups. Behavioral tests for all groups were conducted on weeks 4 and 6. Animals were sacrificed on Day 44 and brains were harvested. […]

The subject of series [6] is rat model of stroke. As to the kind of experiment: transient MCAO in rats: forelimb placement test. The note with it: Week 4 and Week 6; 1.5 and 4.5 mg/kg PO twice a day. In kind it is in vivo, Sprague Dawley rats. The method, then:
as §1
Transient middle cerebral artery occlusion was performed according to the method described in R. Schmid-Elsaesser et al., Stroke, 29(10):2162-2170 (1998). The right Common Carotid Artery (CCA) was exposed through a midline neck incision and carefully dissected free from surrounding nerves and fascia - from its bifurcation to the base of the skull. The occipital artery branches of the ECA (External Carotid Artery) were then isolated, and these branches were dissected and coagulated. The ECA was dissected further distally and coagulated along with the terminal lingual and maxillary artery branches, which was then divided. […]

The subject of series [7] is rat model of stroke. Nature of the series: transient MCAO in rats: stepping test. The series is classed as in vivo, Sprague Dawley rats. Conditions: Week 4 up to Week 6; 1.5 and 4.5 mg/kg PO twice a day. The method, then:
as §1
(§2) Transient middle cerebral artery occlusion was performed according to the method described in R. Schmid-Elsaesser et al., Stroke, 29(10):2162-2170 (1998). […]
Stepping Test. […] The animal was held with its hind limbs fixed in one hand and the forelimb, not to be monitored, in the other, while the unrestrained fore-paw touches the table. The number of adjusting steps were counted while the animal was moved sideways along the table surface (85 cm during approximately five seconds), in the forehand & backhand direction for both forelimbs. […]

In series [8] the test system is rat model of stroke. Nature of the series: transient MCAO in rats: body swing test. In kind it is in vivo, Sprague Dawley rats. Conditions: particularly in the 4.5 mg/kg dose group. The method, then:
as §1, §2
Body Swing Test. […] A swing was recorded whenever the rat moved its head out of the vertical axis to either side. Before attempting another swing, the rat had must return to the vertical position for the next swing to be counted. Twenty (20) total swings were counted. […] Body swing scores were expressed as a percentage of rightward over total swings. […]

For another series, the system named is animal models of stroke. The note with it: administered 24-hours after stroke; Piao et al. 2003; cited from earlier work.

Regarding `O=c1ncn2nc(Sc3ccc(F)cc3F)ccc2c1-c1c(Cl)cccc1Cl` [VX-745], the “IC50 for inhibition of cytokine signaling” value in the series on cytokine signaling was “half that for cytokine production”. Besides, the “whole blood IC50” value in the series with cytokine production is 0.065 to 0.08 µg/mL. In addition, the mean blood concentration result in [1] is reported as “approximately 75 ng/mL”. The “neuroscore, difference between the two doses” value in the series with rat model of stroke [2] (1.5 mg/kg versus 4.5 mg/kg PO twice a day (Figure 2)) is listed as “statistically significant difference”. In addition, the “neuroscore delta (change from Day 2 to actual Week) versus vehicle treated control group” value with rat model of stroke [2] (Week 4 or Week 6, 1.5 and 4.5 mg/kg PO twice a day, Day 3 to Day 42) was “statistically significant difference”. Besides, the “absolute neuroscore versus vehicle treated control group” value with rat model of stroke [2] (Weeks 4 and 6, 1.5 and 4.5 mg/kg PO twice a day, Day 3 to Day 42, start 48 hours after reperfusion) is recorded as “statistically significant difference”. In addition, the “rats that died after treatment initiation” value in series [3] (1.5 mg/kg group (2M), within two weeks of treatment initiation) was “one”. The “general clinical signs, differences between groups” value in series [3] (1.5 and 4.5 mg/kg PO twice a day versus vehicle) was “no observed differences”. Also, the “IL-1β levels in the brain, differences between groups” value in the series on IL-1β is reported as “No statistically significant differences”. Also, the “drug concentrations in the brain compared with the blood” value in series [4] was “approximately two-fold”. For the same compound, the “body weight, differences between groups” value in series [5] was “No statistically significant differences”. For the same compound, in the series with rat model of stroke [6], the “forelimb placement test, sensory motor improvement versus vehicle treated control group” value is listed as “Statistically significant differences”. Moreover, the “stepping test, sensory motor deficit (number of steps, left forelimb) versus vehicle treated control group” value in the series on rat model of stroke [7] is listed as “Statistically significant differences”. Moreover, in the series on rat model of stroke [8], the “body swing test, outcome” value is recorded as “near normalization”.

Consider `C[S+]([O-])c1ccc(-c2nc(-c3ccc(F)cc3)c(-c3ccncc3)[nH]2)cc1` (stereo not drawn) [SB203850], for which, in the series on animal models of stroke, the “effect on recovery from neurologic deficit” value is reported as “no significant effect”.
